molecular target: T1, LPL:sGPIHBP1 complex (Homo sapiens, UniProt P06858); experiment: RB assay (LPL:sGPIHBP1 pre-incubated with ANGPTL4, RB substrate); assay type: biochemical; details: read-out: RB qAC50
T1 sequence (P06858 28-475): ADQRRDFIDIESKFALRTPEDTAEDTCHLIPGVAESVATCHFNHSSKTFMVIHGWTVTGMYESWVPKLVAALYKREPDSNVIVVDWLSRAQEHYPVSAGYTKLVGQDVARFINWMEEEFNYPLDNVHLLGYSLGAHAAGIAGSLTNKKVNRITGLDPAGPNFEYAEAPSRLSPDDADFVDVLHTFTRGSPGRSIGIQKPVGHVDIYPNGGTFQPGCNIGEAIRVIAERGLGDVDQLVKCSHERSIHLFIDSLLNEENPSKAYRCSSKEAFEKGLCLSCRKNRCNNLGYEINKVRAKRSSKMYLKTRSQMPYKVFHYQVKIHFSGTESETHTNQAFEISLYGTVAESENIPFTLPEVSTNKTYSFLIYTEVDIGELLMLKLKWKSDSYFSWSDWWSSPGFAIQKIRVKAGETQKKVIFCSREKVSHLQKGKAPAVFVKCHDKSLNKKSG
T1 sequence (Q8IV16 21-151 partner limits assumed): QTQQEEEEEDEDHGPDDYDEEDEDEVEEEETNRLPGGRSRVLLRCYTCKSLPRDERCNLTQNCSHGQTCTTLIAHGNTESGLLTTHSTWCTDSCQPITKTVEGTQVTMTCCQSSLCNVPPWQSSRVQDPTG
Description: The assay was performed in black 1536-well plates using purified proteins. To identify compounds that stimulate LPL activity either by directly activating LPL or by inhibiting the antagonist ANGPTL4, the LPL:sGPIHBP1 complex was pre-incubated with ANGPTL4 to decrease LPL activity by 80%. After a 60 min pre-incubation, the reaction was started by adding the RB substrate. 30 min after RB addition, the enzymatic reaction was stopped using SDS. Fluorescence intensity was measured 2 h after stopping the reaction.
20 or 40 nl of compound solution in 100% DMSO were placed in test plate. Then was added LPL:sGPIHBP1 to all wells (diluted in assay buffer to 5 nM; 2 μl/well). This was followed by an addition of ANGPTL4 to compounds and neutral controls (diluted in assay buffer to 20 nM; 1 μl/well). A buffer solution was added to the stimulator control (1 μl/well). The plates were then centrifuged and pre-incubated for 60 min at RT. The reaction was started by adding substrate to all wells (diluted in assay buffer to 40 μM, 1 μl/well). The plated were centrifuged (800 rpm for 1 min) and incubated 30 min at RT (=reaction time). The reaction was stopped by adding SDS to all wells (diluted in water to 2.5%, 2 μl/well); incubated 2 h at RT. The fluorescence intensity (ex 540 nm/em 590 nm) was measured on a Pherastar (BMG) using 5 flashes.

Row | EC50 [µM] | Compound
1 | 4.6 | O=C(O)Cc1cc(Cl)ccc1NC(=O)c1ccc(N2CCCCC2)c(NC(=O)c2nn(CC(F)(F)F)c3ccccc23)c1 [Compound 23, 2-(5-chloro-2-(4-(piperidin-1-yl)-3-(1-(2,2,2-trifluoroethyl)-1H-indazole-3-carboxamido)benzamido)phenyl)acetic acid]
2 | 13 | O=C(O)Cc1cc(F)ccc1NC(=O)c1ccc(N2CCCCC2)c(NC(=O)c2nn(C3CC3)c3ccccc23)c1 [Compound 97, 2-(2-(3-(1-cyclopropyl-1H-indazole-3-carboxamido)-4-(piperidin-1-yl)benzamido)-5-fluorophenyl)acetic acid]
3 | > 25 | CC(C1CCOCC1)n1nc(C(=O)Nc2cc(C(=O)Nc3ccc(F)cc3CC(=O)O)ccc2N2CCCCC2)c2ccccc21 (stereo not shown) [Compound 148, 2-(5-fluoro-2-(4-(piperidin-1-yl)-3-(1-(1-(tetrahydro-2H-pyran-4-yl)ethyl)-1H-indazole-3-carboxamido)benzamido)phenyl)acetic acid]
4 | 6.4 | O=C(O)Cc1cc(F)ccc1NC(=O)c1ccc(N2CCCCC2)c(NC(=O)c2nn(CC(F)(F)F)c3cnccc23)c1 [Compound 112, 2-(5-fluoro-2-(4-(piperidin-1-yl)-3-(1-(2,2,2-trifluoroethyl)-1H-pyrazolo[3,4-c]pyridine-3-carboxamido)benzamido)phenyl)acetic acid]
5 | 23 | O=C(O)Cc1cc(F)ccc1NC(=O)c1ccc(N2CCCCC2)c(NC(=O)c2cc(-c3ccccc3)n(CC(F)(F)F)n2)c1 [Compound 116, 2-(5-fluoro-2-(3-(5-phenyl-1-(2,2,2-trifluoroethyl)-1H-pyrazole-3-carboxamido)-4-(piperidin-1-yl)benzamido)phenyl)acetic acid]
6 | > 7.1 | O=C(O)Cc1cc(F)ccc1NC(=O)c1ccc(N2CCCCC2)c(NC(=O)c2nn(CC(F)(F)F)cc2-c2ccccc2)c1 [Compound 115, 2-(5-fluoro-2-(3-(4-phenyl-1-(2,2,2-trifluoroethyl)-1H-pyrazole-3-carboxamido)-4-(piperidin-1-yl)benzamido)phenyl)acetic acid]
7 | 4.3 | N#CC1(Cn2nc(C(=O)Nc3cc(C(=O)Nc4ccc(F)cc4CC(=O)O)ccc3N3CCCCC3)c3ccccc32)CC1 [Compound 127, 2-(2-(3-(1-((1-cyanocyclopropyl)methyl)-1H-indazole-3-carboxamido)-4-(piperidin-1-yl)benzamido)-5-fluorophenyl)acetic acid]
8 | > 7.1 | CC(n1nc(C(=O)Nc2cc(C(=O)Nc3ccc(F)cc3CC(=O)O)ccc2N2CCCCC2)c2ccccc21)C(F)(F)F (stereo not shown) [Compound 146, 2-(5-fluoro-2-(4-(piperidin-1-yl)-3-(1-(1,1,1-trifluoropropan-2-yl)-1H-indazole-3-carboxamido)benzamido)phenyl)acetic acid]
9 | > 25 | O=C(O)Cc1cc(F)ccc1NC(=O)c1ccc(N2CCCCC2)c(NC(=O)c2nn(CC3CCNCC3)c3ccccc23)c1 [Compound 103, 2-(5-fluoro-2-(4-(piperidin-1-yl)-3-(1-(piperidin-4-ylmethyl)-1H-indazole-3-carboxamido)benzamido)phenyl)acetic acid]
10 | 3.1 | CC#CCn1nc(C(=O)Nc2cc(C(=O)Nc3ccc(F)cc3CC(=O)O)ccc2N2CCCCC2)c2ccccc21 [Compound 123, 2-(2-(3-(1-(but-2-yn-1-yl)-1H-indazole-3-carboxamido)-4-(piperidin-1-yl)benzamido)-5-fluorophenyl)acetic acid]
11 | 9 | O=C(O)Cc1cc(F)ccc1NC(=O)c1ccc(N2CCCCC2)c(NC(=O)c2nn(CC(F)(F)F)c3ncccc23)c1 [Compound 113, 2-(5-fluoro-2-(4-(piperidin-1-yl)-3-(1-(2,2,2-trifluoroethyl)-1H-pyrazolo[3,4-b]pyridine-3-carboxamido)benzamido)phenyl)acetic acid]
12 | 4.1 | O=C(O)Cc1ccccc1C(=O)Nc1ccc(N2CCCCC2)c(C(=O)Nc2nn(CC(F)(F)F)c3ccccc23)c1 [Compound 51, 2-(2-((4-(piperidin-1-yl)-3-((1-(2,2,2-trifluoroethyl)-1H-indazol-3-yl)carbamoyl)phenyl)carbamoyl)phenyl)acetic acid]
13 | > 25 | O=C(O)Cc1cc(F)ccc1NC(=O)c1ccc(N2CCCCC2)c(NC(=O)c2cn3ccccc3n2)c1 [Compound 109, 2-(5-fluoro-2-(3-(imidazo[1,2-a]pyridine-2-carboxamido)-4-(piperidin-1-yl)benzamido)phenyl)acetic acid]
14 | > 25 | Cc1c(C(=O)Nc2cc(C(=O)Nc3ccc(F)cc3CC(=O)O)ccc2N2CCCCC2)c2ccccc2n1CC(F)(F)F [Compound 130, 2-(5-fluoro-2-(3-(2-methyl-1-(2,2,2-trifluoroethyl)-1H-indole-3-carboxamido)-4-(piperidin-1-yl)benzamido)phenyl)acetic acid]
15 | 4.8 | O=C(O)Cc1cc(F)ccc1NC(=O)c1ccc(N2CCCCC2)c(C(=O)Nc2nn(CC(F)(F)F)c3ccccc23)c1 [Compound 41, 2-(5-fluoro-2-(4-(piperidin-1-yl)-3-((1-(2,2,2-trifluoroethyl)-1H-indazol-3-yl)carbamoyl)benzamido)phenyl)acetic acid]
16 | > 25 | O=C(O)Cc1cc(F)ccc1NC(=O)c1ccc(N2CCCCC2)c(NC(=O)c2nn(C[C@@H]3CCCO3)c3ccccc23)c1 [Compound 136, (S)-2-(5-fluoro-2-(4-(piperidin-1-yl)-3-(1-((tetrahydrofuran-2-yl)methyl)-1H-indazole-3-carboxamido)benzamido)phenyl)acetic acid]

Row | Compound | EC50 [µM]
17 | O=C(O)Cc1cc(F)ccc1NC(=O)c1ccc(N2CCCC2)c(NC(=O)c2nn(CC(F)(F)F)c3ccccc23)c1 [Example 50] | 24
18 | CC1CC(C)CN(c2ccc(C(=O)Nc3ccc(F)cc3CC(=O)O)cc2NC(=O)c2nn(CC(F)(F)F)c3ccccc23)C1 (stereo not shown) [Example 74] | > 7.1
19 | O=C(O)Cc1cc(F)ccc1NC(=O)c1ccc(N2CCCCC2=O)c(NC(=O)c2nn(CC(F)(F)F)c3ccccc23)c1 [Example 59] | > 25
20 | Cc1cccc2c(C(=O)Nc3cc(C(=O)Nc4ccc(F)cc4CC(=O)O)ccc3N3CCCCC3)nn(CC(F)(F)F)c12 [Compound 144, 2-(5-fluoro-2-(3-(7-methyl-1-(2,2,2-trifluoroethyl)-1H-indazole-3-carboxamido)-4-(piperidin-1-yl)benzamido)phenyl)acetic acid] | 5.8
21 | NC(=O)C1CCCCN1c1ccc(C(=O)Nc2ccc(F)cc2CC(=O)O)cc1NC(=O)c1nn(CC(F)(F)F)c2ccccc12 (stereo not shown) [Example 71] | > 7.1
22 | CC1(C)CCN(c2ccc(C(=O)Nc3ccc(F)cc3CC(=O)O)cc2NC(=O)c2nn(CC(F)(F)F)c3ccccc23)CC1 [Example 61] | 3.6
23 | CC1CCCC(C)N1c1ccc(C(=O)Nc2ccc(F)cc2CC(=O)O)cc1NC(=O)c1nn(CC(F)(F)F)c2ccccc12 (stereo not shown) [Example 68] | > 7.1
24 | O=C(O)Cc1cc(F)ccc1NC(=O)c1ccc(N2CC3CCC2C3)c(NC(=O)c2nn(CC(F)(F)F)c3ccccc23)c1 (racemic) [Example 58] | 18
25 | CCC(C(=O)O)c1cc(F)ccc1NC(=O)c1ccc(N2CCCCC2)c(NC(=O)c2nn(CC(F)(F)F)c3ccccc23)c1 (stereo not shown) [Example 28] | 4.2
26 | O=C(O)Cc1cc(F)ccc1NC(=O)c1ccc(N2CCCC(F)(F)C2)c(NC(=O)c2nn(CC(F)(F)F)c3ccccc23)c1 [Example 62] | > 7.1
27 | Cc1cc(N2CCCCC2)c(NC(=O)c2nn(CC(F)(F)F)c3ccccc23)cc1C(=O)Nc1ccc(F)cc1CC(=O)O [Compound 55, 2-(5-fluoro-2-(2-methyl-4-(piperidin-1-yl)-5-(1-(2,2,2-trifluoroethyl)-1H-indazole-3-carboxamido)benzamido)phenyl)acetic acid] | 5
28 | O=C(O)Cc1cc(F)ccc1NC(=O)c1ccc(N2CCS(=O)(=O)CC2)c(NC(=O)c2nn(CC(F)(F)F)c3ccccc23)c1 [Example 66] | > 25
29 | O=C(O)Cc1cc(F)ccc1NC(=O)c1ccc(N2CCC(O)CC2)c(NC(=O)c2nn(CC(F)(F)F)c3ccccc23)c1 [Example 75] | > 25
30 | O=C(O)Cc1cc(F)ccc1NC(=O)c1ccc(N2CCC(F)(F)CC2)c(NC(=O)c2nn(CC(F)(F)F)c3ccccc23)c1 [Example 40] | 3.5
31 | O=C(O)Cc1cccc(F)c1NC(=O)c1ccc(N2CCCCC2)c(NC(=O)c2nn(CC(F)(F)F)c3ccccc23)c1 [Compound 24, 2-(3-fluoro-2-(4-(piperidin-1-yl)-3-(1-(2,2,2-trifluoroethyl)-1H-indazole-3-carboxamido)benzamido)phenyl)acetic acid] | 3.2
